{"source": "patent US20180298344A1", "about": "“Realistic Humanized Model of Disease Matrix Environment for Evaluation of Therapeutic Reversal or Cell Fate” (Yale University, priority 2017, published 2018)", "test_system": "human microvascular pericytes (PC)", "assay": "Short term (7 day) myofibroblast differentiation of PC on low, medium, high stiffness hydrogels with TGF-β1 or bleomycin activation", "assay_type": "cell-based", "procedure": "Human microvascular PC were isolated from a readily available and nearly inexhaustible source, human placental tissue, by microvascular segment explant outgrowth (Sava et al., Microcirculation, 2015, 22:54-67; Ayres-Sander et al., PLoS One, 2013, 8:e60025; Lauridsen et al., FASEB, 2014, 28:1166-1180; Maier et al., Microcirculation, 2010, 17:367-380). Human placental tissue was segmented, digested with collagenase, and the resulting cells were cultured in M199 (Gibco, Grand Island, NY, USA) medium supplemented with 20% FBS (Hyclone Laboratories, Logan, Utah, USA), and 1% penicillin-streptomycin (Gibco). Isolated pericytes were screened by flow cytometry against NG2 (H-300, Santa Cruz Biotechnology), CD90 (K-15, Santa Cruz), CD146 (P1H12, Biolegend, San Diego, Calif., USA), PDGFR-β (18A2, Santa Cruz), α-SMA (1A4, Santa Cruz), SMMHC (N-16, Santa Cruz), CD31 (C20, Santa Cruz), CD34 (581, Sigma) and CD45 (MEM-28, Sigma). As negative control, PC were incubated with isotype matched IgG. Samples were run on a Stratedigm S1000EXi Flow Cytometer (Stratedigm, San Jose, Calif. USA) and analyzed with FlowJo software (Tree Star, Ashland, Oreg., USA).\nPolyacrylamide hydrogels were prepared as previously described (Tse and Engler, Current protocols in cell biology, editorial board, Juan S. Bonifacino et al, 2010, Chapter 10, Unit 10-16). Briefly, amino-silanated coverslips were prepared by treatment with 0.1M NaOH, followed by 3-aminopropyltriethoxysilane (Sigma), and crosslinked with glutaraldehyde. Chloro-silanated coverslips were treated with dichlorodimethylsilane (Sigma). Polyacrylamide solutions of varying stiffness were prepared by altering the concentrations of acrylamide (Bio-Rad, Hercules, Calif., USA) and bis-acrylamide (Bio-Rad). Ammonium persulfate (Sigma) and tetramethylethylenediamine (Bio-Rad) were used as cross-linkers. The solution was placed between the chloro-silanated and amino-silanated coverslips and cross-linked under ambient lighting for 30 minutes, after which the amino-silanated slide, containing the hydrogel, was hydrated in PBS. The ECM components were chemically conjugated to the polyacrylamide hydrogel using the naturally occurring amine residues on the proteins. Sulfa-SANPAH (Thermo Fisher, Grand Island, N.Y., USA) was added in 50 mM 4-(2-hydroxyethyl)-1-piperazineethanesulfonic acid buffer (Sigma) and the hydrogels were placed under UV light (365 nm, 10 mW/cm^2) for 15 minutes, and incubated overnight with either 0.5 mg/mL solubilized healthy or IPF human lung ECM, or isolated ECM proteins (0.1 mg/mL human plasma fibronectin (Millipore, Billerica, Mass., USA) and 0.1 mg/mL collagen I (Sigma). Validation of protein conjugation was performed by tagging ECM with NHS-Fluorescein (5/6-carboxyfluorescein succinimidyl ester), dialyzing overnight, and rinsed extensively (Syed et al., J Vis, Exp, 2015, 97).\nFor short term (7 day) differentiation studies, PC (passage 3-7) were seeded on healthy or IPF lung tissue slices, polyacrylamide hydrogels, or 25 mm glass coverslips (VWR) at 100×10^3 cells per sample and activated with control media (non-activated), or 1 ng/mL TGF-β1 (PeproTech, Rocky Hill, N.J., USA) for 7 days (18, 19). For bleomycin activation, the cells were activated with 1 μg/mL bleomycin sulfate (Cayman Chemical, Ann Arbor, Mich.) for 1 day and the media was replaced with non-activated media for the remaining 6 days (Sava et al., Microcirculation, 2015, 22:54-67; Sterling et al., J Bio Chem, 1983, 258:14438-14444). TGF-β1 and bleomycin concentrations were based on reports consistent with activation of fibroblasts (Sava et al., Microcirculation, 2015, 22:54-67; Maroni and Davis, Bio Reprod, 2012, 87:127). Treatment with CCG-1423 (Sigma) was performed at day 0 for the full 7 days, and labeled as early treatment, or at day 7 and performed for 7 days, and labeled as late treatment. […]", "key": {"[1]": {"details": "7 days, low, medium, high stiffness hydrogels with fibronectin and collagen I, TGF-β1 1 ng/mL 7 days or bleomycin 1 μg/mL 1 day, flow cytometry"}}, "data": [{"substance": "TGF-β1: transforming growth factor (TGF)-β1, fibrotic activator, used at 1 ng/mL", "values": [{"measurement": "vimentin expression compared to non-activated PC on substrates of the same stiffness", "setting": "[1]", "result": "did not induce a significant increase"}, {"measurement": "α-SMA expression compared to non-activated PC on substrates of the same stiffness", "setting": "[1]", "result": "did not induce a significant increase"}, {"measurement": "proportion of α-SMA-expressing PC", "setting": "soft or stiff hydrogels, up to 7 days, presence or absence of TGF-β1", "result": "failed to affect"}]}]}
